This assay deals with T1, Itk (Homo sapiens, UniProt Q08881).
T1 sequence (Q08881 1-620): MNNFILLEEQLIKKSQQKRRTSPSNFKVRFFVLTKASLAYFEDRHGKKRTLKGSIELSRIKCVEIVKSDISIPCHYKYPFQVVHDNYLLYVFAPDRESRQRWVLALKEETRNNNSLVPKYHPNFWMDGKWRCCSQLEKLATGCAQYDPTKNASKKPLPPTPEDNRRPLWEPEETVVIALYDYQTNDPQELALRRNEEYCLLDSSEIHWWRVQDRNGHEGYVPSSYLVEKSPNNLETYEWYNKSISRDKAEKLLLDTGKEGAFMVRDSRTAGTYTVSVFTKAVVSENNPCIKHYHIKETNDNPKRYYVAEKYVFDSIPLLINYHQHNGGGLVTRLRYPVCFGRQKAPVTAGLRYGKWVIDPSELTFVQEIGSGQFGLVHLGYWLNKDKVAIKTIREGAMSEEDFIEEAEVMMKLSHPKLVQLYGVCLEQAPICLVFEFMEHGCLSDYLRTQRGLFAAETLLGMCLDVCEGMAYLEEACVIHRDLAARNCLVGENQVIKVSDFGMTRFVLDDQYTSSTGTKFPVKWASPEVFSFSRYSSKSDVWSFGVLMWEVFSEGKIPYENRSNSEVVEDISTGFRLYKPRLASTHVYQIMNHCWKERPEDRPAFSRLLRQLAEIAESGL
The experiment in a line: Itk inhibition assay: spectrophotometric coupled enzyme (Method C). Format: biochemical. The conditions noted are these: 100 μM ATP, read-out: Ki in the standard coupled enzyme assay (Method C). Here is the method: The compounds of the present invention were evaluated as inhibitors of human Itk kinase using either a radioactivity-based, spectrophotometric or alphascreen assay.
Compounds were screened for their ability to inhibit Itk using a standard coupled enzyme assay (Fox et al., Protein Sci., (1998) 7, 2249).
Assays were carried out in a mixture of 20 mM MOPS (pH 7.0), 10 mM MgCl2, 0.1% BSA, 1 mM DTT, 2.5 mM phosphoenolpyruvate, 300 μM NADH, 30 μg/ml pyruvate kinase and 10 μg/ml lactate dehydrogenase. Final substrate concentrations in the assay were 100 μM ATP (Sigma Chemicals) and 3 μM peptide (Biotinylated SAM68 Δ332-443). Assays were carried out at 25° C. and in the presence of 10 nM Itk.
An assay stock buffer solution was prepared containing all of the reagents listed above, with the exception of ATP and the test compound of interest. 60 μl of the stock solution was placed in a 96 well plate followed by addition of 2 μl of DMSO stock containing serial dilutions of the test compound (typically starting from a final concentration of 15 μM). The plate was preincubated for 10 minutes at 25° C. and the reaction initiated by addition of 5 μl of ATP. Initial reaction rates were determined with a Molecular Devices SpectraMax Plus plate reader over a 10 minute time course. IC50 and Ki data were calculated from non-linear regression analysis using the Prism software package (GraphPad Prism version 3.0cx for Macintosh, GraphPad Software, San Diego Calif., USA).
Broadly, the Ki is the equilibrium dissociation constant of an inhibitor or competing ligand from its target. `CC(C)(C)c1cccc(Nc2ncc3ccc4sc(C(=O)N5CCOCC5)cc4c3n2)c1` [Compound V-55]: the Ki is under 1000 nM. Turning to `CN1CCN(C(=O)c2cc3c(ccc4cnc(Nc5cccc(C(C)(C)C)c5)nc43)s2)CC1` [Compound V-56], the inhibition constant (Ki) is under 1000 nM.

Consider `O=C(c1cc2c(ccc3cnc(Nc4cccc(-c5ccccc5)c4)nc32)s1)N1CCOCC1` [Compound V-58], for which the Ki is under 1000 nM. For `CN1CCN(C(=O)c2cc3c(ccc4cnc(Nc5cccc(-c6ccccc6)c5)nc43)s2)CC1` [Compound V-59], the Ki is under 1000 nM. As for `CC(C)(C)OC(=O)NC1CCN(C(=O)c2cc3c(ccc4cnc(Nc5cccc(-c6ccccc6)c5)nc43)s2)C1` (centres unmarked) [Compound V-60], the figure is under 1000 nM; as for `O=C(c1cc2c(ccc3cnc(Nc4cccc(F)c4)nc32)s1)N1CCOCC1` [Compound V-61], under 1000 nM. As for `CC(C)(C)OC(=O)NC1CCN(C(=O)c2cc3c(ccc4cnc(Nc5cccc(F)c5)nc43)s2)C1` (centres unmarked) [Compound V-63], the figure is under 1000 nM; as for `O=C(CCN1CCCCC1)Nc1cccc(Nc2ncc3ccc4sc(C(=O)N5CCOCC5)cc4c3n2)c1` [Compound V-67], under 1000 nM. Consider `CC(=O)Nc1cccc(Nc2ncc3ccc4sc(C(=O)N5CCOCC5)cc4c3n2)c1` [Compound V-68], for which the inhibition constant (Ki) is under 1000 nM. Consider `O=C(CCN1CCOCC1)Nc1cccc(Nc2ncc3ccc4sc(C(=O)N5CCOCC5)cc4c3n2)c1` [Compound V-69], for which the inhibition constant Ki was under 1000 nM. Next, `CN1CCN(CCC(=O)Nc2cccc(Nc3ncc4ccc5sc(C(=O)N6CCOCC6)cc5c4n3)c2)CC1` [Compound V-70]: under 1000 nM. As for `CN(C)CCC(=O)Nc1cccc(Nc2ncc3ccc4sc(C(=O)N5CCOCC5)cc4c3n2)c1` [Compound V-71], the figure is under 1000 nM; as for `CC(C)(C)c1cccc(Nc2ncc3ccc4sc(C(=O)N5CCC(N)C5)cc4c3n2)c1` (centres unmarked) [Compound V-72], under 1000 nM; as for `NC1CCN(C(=O)c2cc3c(ccc4cnc(Nc5cccc(-c6ccccc6)c5)nc43)s2)C1` (centres unmarked) [Compound V-73], under 1000 nM. With `NC1CCN(C(=O)c2cc3c(ccc4cnc(Nc5cccc(F)c5)nc43)s2)C1` (centres unmarked) [Compound V-74], the inhibition constant (Ki) was under 1000 nM. As for `COCCNCCC(=O)Nc1cccc(Nc2ncc3ccc4sc(C(=O)N5CCOCC5)cc4c3n2)c1` [Compound V-76], the Ki is under 1000 nM. Take `COCCCNCCC(=O)Nc1cccc(Nc2ncc3ccc4sc(C(=O)N5CCOCC5)cc4c3n2)c1` [Compound V-77]: the Ki is under 1000 nM. As for `CC1CC(C)CN(CCC(=O)Nc2cccc(Nc3ncc4ccc5sc(C(=O)N6CCOCC6)cc5c4n3)c2)C1` (centres unmarked) [Compound V-78], the figure is under 1000 nM. As for `CC(C)(C)c1cccc(Nc2ncc3ccc4sc(C(=O)N5CCNCC5)cc4c3n2)c1` [Compound V-79], the figure is under 1000 nM. As for `O=C(c1cc2c(ccc3cnc(Nc4cccc(-c5ccccc5)c4)nc32)s1)N1CCNCC1` [Compound V-80], the figure is under 1000 nM. Consider `CC(C)c1cccc(Nc2ncc3ccc4sc(C(=O)N5CCNCC5)cc4c3n2)c1` [Compound V-81], for which the Ki is under 1000 nM. As for `CC(C)c1cccc(Nc2ncc3ccc4sc(C(=O)N5CCC(N)C5)cc4c3n2)c1` (centres unmarked) [Compound V-82], the figure is under 1000 nM. As for `CN1CCN(C(=O)c2cc3c(ccc4cnc(Nc5cccc(Oc6ccccc6)c5)nc43)s2)CC1` [Compound V-83], the figure is under 1000 nM; as for `O=C(c1cc2c(ccc3cnc(Nc4cccc(Oc5ccccc5)c4)nc32)s1)N1CCNCC1` [Compound V-84], under 1000 nM; as for `NC1CCN(C(=O)c2cc3c(ccc4cnc(Nc5cccc(Oc6ccccc6)c5)nc43)s2)C1` (centres unmarked) [Compound V-85], under 1000 nM. In the case of `CN1CCN(C(=O)c2cc3c(ccc4cnc(Nc5cccc(Cc6ccccc6)c5)nc43)s2)CC1` [Compound V-86], the Ki is under 1000 nM. Next, `O=C(c1cc2c(ccc3cnc(Nc4cccc(Cc5ccccc5)c4)nc32)s1)N1CCNCC1` [Compound V-87]: under 1000 nM; `NC1CCN(C(=O)c2cc3c(ccc4cnc(Nc5cccc(Cc6ccccc6)c5)nc43)s2)C1` (centres unmarked) [Compound V-88]: under 1000 nM; `O=C(c1cc2c(ccc3cnc(Nc4cccc(Br)c4)nc32)s1)N1CCNCC1` [Compound V-89]: under 1000 nM. As for `Cc1ccccc1-c1cccc(Nc2ncc3ccc4sc(C(=O)N5CCNCC5)cc4c3n2)c1` [Compound V-90], the figure is under 1000 nM; as for `COc1ccccc1-c1cccc(Nc2ncc3ccc4sc(C(=O)N5CCNCC5)cc4c3n2)c1` [Compound V-91], under 1000 nM; as for `Cc1cccc(C)c1-c1cccc(Nc2ncc3ccc4sc(C(=O)N5CCNCC5)cc4c3n2)c1` [Compound V-92], under 1000 nM.

`O=C(c1cc2c(ccc3cnc(Nc4cccc(-c5cccnc5)c4)nc32)s1)N1CCNCC1` [Compound V-94]: the Ki was under 1000 nM.

Consider `Cc1ccsc1-c1cccc(Nc2ncc3ccc4sc(C(=O)N5CCNCC5)cc4c3n2)c1` [Compound V-95], for which the Ki is under 1000 nM. In the case of `Cc1cscc1-c1cccc(Nc2ncc3ccc4sc(C(=O)N5CCNCC5)cc4c3n2)c1` [Compound V-96], the inhibition constant Ki is under 1000 nM. `O=C(c1cc2c(ccc3cnc(Nc4cccc(-c5ccsc5Cl)c4)nc32)s1)N1CCNCC1` [Compound V-97]: the Ki was under 1000 nM. As to `O=C(c1cc2c(ccc3cnc(Nc4ccc(N5CCOCC5)cc4)nc32)s1)N1CCNCC1` [Compound V-98], the inhibition constant (Ki) is under 1000 nM. Next, `CS(=O)(=O)c1cccc(Nc2ncc3ccc4sc(C(=O)N5CCNCC5)cc4c3n2)c1` [Compound V-100]: under 1000 nM; `CS(=O)(=O)c1cccc(Nc2ncc3ccc4sc(C(=O)N5CCC(N)C5)cc4c3n2)c1` (centres unmarked) [Compound V-101]: under 1000 nM. Next, `CC(C)Oc1cccc(Nc2ncc3ccc4sc(C(=O)N5CCNCC5)cc4c3n2)c1` [Compound V-102]: under 1000 nM; `CC(C)Oc1cccc(Nc2ncc3ccc4sc(C(=O)N5CCC(N)C5)cc4c3n2)c1` (centres unmarked) [Compound V-103]: under 1000 nM; `CN(C)C(=O)c1cc2c(ccc3cnc(Nc4cccc(C(C)(C)C)c4)nc32)s1` [Compound V-104]: under 1000 nM. As for `CC(=O)N1CCN(C(=O)c2cc3c(ccc4cnc(Nc5cccc(C(C)(C)C)c5)nc43)s2)CC1` [Compound V-105], the figure is under 1000 nM; as for `CC(=O)N1CCCN(C(=O)c2cc3c(ccc4cnc(Nc5cccc(C(C)(C)C)c5)nc43)s2)CC1` [Compound V-106], under 1000 nM; as for `CC(C)(C)c1cccc(Nc2ncc3ccc4sc(C(=O)NCC5CCNCC5)cc4c3n2)c1` [Compound V-107], under 1000 nM.

With `CC(C)(C)c1cccc(Nc2ncc3ccc4sc(C(=O)NCC5CCNC5)cc4c3n2)c1` (centres unmarked) [Compound V-108], the Ki was under 1000 nM.

Take `CC(C)(C)c1cccc(Nc2ncc3ccc4sc(C(=O)N5CCCNCC5)cc4c3n2)c1` [Compound V-109]: the inhibition constant (Ki) is under 1000 nM.

`CC(C)(C)c1cccc(Nc2ncc3ccc4sc(C(=O)N5CC[C@H](N)C5)cc4c3n2)c1` [Compound V-110]: the Ki was under 1000 nM. For `CC(C)(C)c1cccc(Nc2ncc3ccc4sc(C(=O)N5CC[C@@H](N)C5)cc4c3n2)c1` [Compound V-111], the inhibitory constant (Ki) was under 1000 nM.

With `O=C(c1cc2c(ccc3cnc(Nc4cccc(N5CCOCC5)c4)nc32)s1)N1CCNCC1` [Compound V-112], the inhibitory constant (Ki) was under 1000 nM. On to `O=C(c1cc2c(ccc3cnc(Nc4cccc(N5CCNCC5)c4)nc32)s1)N1CCNCC1` [Compound V-113], for which the Ki was under 1000 nM. Turning to `CN1CCN(c2cccc(Nc3ncc4ccc5sc(C(=O)N6CCNCC6)cc5c4n3)c2)CC1` [Compound V-114], the inhibition constant (Ki) is under 1000 nM.

As to `O=C(c1cc2c(ccc3cnc(Nc4ccc(N5CCNCC5)cc4)nc32)s1)N1CCNCC1` [Compound V-115], the Ki is under 1000 nM.

As to `O=C(c1cc2c(ccc3cnc(Nc4ccncc4)nc32)s1)N1CCNCC1` [Compound V-116], the inhibition constant Ki was under 1000 nM.

For `O=C(c1cc2c(ccc3cnc(Nc4cccnc4)nc32)s1)N1CCNCC1` [Compound V-117], the Ki is under 1000 nM. As for `CC(=O)N1CCC(CNC(=O)c2cc3c(ccc4cnc(Nc5cccc(C(C)(C)C)c5)nc43)s2)CC1` [Compound V-118], the inhibitory constant (Ki) is under 1000 nM.
